Measurements: publication PMC11434290, “Pharmacokinetics and Dose Proportionality Study of a Novel Antiparkinsonian Agent, a 1H-1,2,4-Triazol-3-ylthio-conjugate of Prottremine” (Molecules, 2024)
Entries after “also recorded” stand apart in the source; their conditions may differ. Each block holds one compound with its values, some of them ahead of it.

Legend:
[1] = tested on: mice; conditions: acute toxicity; cited from earlier work
[2] = tested on: MPTP-, haloperidol-, and rotenone-induced models; conditions: cited from earlier work; for Dose showing antiparkinsonian activity: various mouse and rat models (MPTP-, haloperidol-, rotenone-induced)
[3] = Pharmacokinetics of PA-96 after single oral (p.o.) administration to mice; format: in vivo, CD-1 mice; conditions: for Tmax / bioavailability / Cmax / half-life / AUC(0-t) / Vd/F: both sexes, CD-1, mouse, whole blood; for Tmax / Cmax / half-life / AUC(0-t) / Vd/F: po; for bioavailability: oral, assessed via AUC of i.v. injection at 1 mg/kg; for Vd/F: read-out: Vz/F_obs
Description: After the development and validation of the method for determination of PA-96 in mice blood, a preliminary pharmacokinetic study was carried out. The agent PA-96 was administered to two mice per os as a suspension in Tween-80 at a dose of 10 mg/kg, and blood samples were taken from the animals at 0.5, 1, 1.5, 2, 2.5, 3, 3.5, 4, 5, 5.5, and 24 h after administration. Four 10 µL samples were taken at each timepoint: two were spotted onto the paper and dried, and two others were precipitated using the ZnSO4 solution. All prepared samples were analysed, and the graph representing the PA-96 peak area values was plotted (Figure 6). […] As such, the PPT method for whole blood samples was chosen for the next experiments.
After administration, blood samples were taken from the tail vein of each animal at 5, 10, 20, 30, 40, 50, 60, 75, 90, 120, and 150 min, and the samples were prepared following the PPT protocol.
(§1) The LC–MS/MS analysis was carried out using a Shimadzu LC-20AD Prominence chromatograph equipped with a cooling autosampler, binary gradient pump, and column oven (Shimadzu, Japan) coupled with a 3200 QTRAP mass spectrometer (AB SCIEX, Framingham, MA, USA) equipped with an electrospray ionisation source (ESI). The mass spectrometer worked in positive mode and multiple reaction monitoring (MRM) detection mode for quantitation. Analyst 1.6.2 software (AB SCIEX, Framingham, MA, USA) was used for instrument control and data acquisition, and MultiQuant 2.1 software (AB SCIEX, Framingham, MA, USA) was used for quantitation. To calculate the main pharmacokinetic parameters, the Microsoft Excel plugin PKSolver was used.
(§2) CD-1 mice (male and female) were obtained from the SPF vivarium of the Institute of Cytology and Genetics, Russia. The mice weighed 25–30 g at the beginning of the experiment.
An accurately weighed amount of PA-96 was mechanically mixed with Tween-80 using a mortar and pestle followed by suspending the obtained sample in physiological solution. The animals (n = 2) received a single dose of 10 mg/kg per os (p.o.). The timepoints were 0.5, 1, 1.5, 2, 2.5, 3, 3.5, 4, 5, 5.5, and 24 h. At each timepoint, 10 µL of blood was taken from the tail vein, and the sample was prepared by DBS and PPT with ZnSO4 in methanol. Afterwards, the samples were analysed in accordance with the HPLC–MS/MS protocol.
In the next experiment, the sampling scheme was optimised by changing the timepoints as follows: 5, 10, 20, 30, 40, 50, 60, 75, and 90 min, and 2, 2.5, 3, 3.5, 4, and 5 h; this was in order to investigate the pharmacokinetics more thoroughly. The experiment design was not changed, but the sample preparation was carried out by the PPT method exclusively.
(§3) In order to investigate the bioavailability and dose proportionality, PA-96 was administered p.o. at the dosages of 1, 5, and 10 mg/kg and intravenously (i.v.) at the dosages of 1 and 10 mg/kg. For each experiment, we used 6–7 mice. The blood was drawn from the tail vein at the following timepoints: 3, 5, 10, 15, 30, 45, 60, 90, 120, and 150 min. The samples were prepared and analysed.

[4] = Pharmacokinetics of PA-96 after double p.o. administration to mice; format: in vivo, CD-1 mice; conditions: for AUC(0-t) / Cmax / half-life / Vd/F: 5 mg/kg; for Vd/F: read-out: Vz/F_obs
Description: In our work, an experiment with double administration of the agent PA-96 was carried out. The substance was administered to mice (n = 6) two times at doses of 5 mg/kg within the interval of 4 h as a formulation in Tween-80. After the first administration, blood was collected from the tail vein of each animal at 5, 10, 20, 30, 40, 50, 60, 75, and 90 min, and 2, 2.5, 3, 3.5, and 4 h. After the administration of the second dose, blood was collected at the same timepoints, and all samples were prepared following the PPT protocol.
as §1, §2
To investigate the pharmacokinetics of PA-96 in a multiple dosing regimen, the dosage form was prepared as described above, but only half was administered to the animals (n = 6). The first portion, corresponding to a dose of 5 mg/kg, was administered to the mice followed by blood sampling at 5, 10, 20, 30, 40, 50, 60, 75, and 90 min, and 2, 2.5, 3, 3.5, and 4 h after administration. At the latter timepoint, the second dose was administered, and the blood was sampled at the same timepoints as listed above.

[5] = Pharmacokinetics of PA-96 after intravenous (i.v.) injection to mice; format: in vivo, CD-1 mice; conditions: for AUC(0-t) / Cmax / Tmax / half-life: both sexes, CD-1, mouse, whole blood, iv
Description: To evaluate the bioavailability of the agent PA-96, a suspension of the compound with Tween-80 was administered intravenously at doses of 1 and 10 mg/kg. After administration, blood in an amount of approximately 10 µL was collected from the tail vein of each animal at 5, 10, 15, 30, 45, 60, 90, 120, and 150 min, and samples were prepared following the PPT protocol.
Therefore, it was necessary to widen the operating concentration range of the calibration curve. To quantify PA-96 in these blood samples, we prepared and analysed spikes containing the agent in concentrations of 530, 1325, 2650, 3530, 8800, 10,600, and 21,200 ng/mL, which were used to construct a high-concentration calibration curve. In addition to these calibrators, quality control samples were prepared containing PA-96 at the concentrations of 1760, 5300, and 17,100 ng/mL (QCL, QCM, and QCH, respectively). […] As the objective of building this calibration curve was to evaluate the concentration of PA-96 only in several samples, the full validation of this expansion of the developed bioanalytical method was not performed.
as §1, §2
as §3, with “For each experiment, we used 6–7 mice.” left out

[6] = Stability of PA-96 in whole mouse blood; format: in vitro ADME, mice; conditions: spike 50 ng/mL, 5-240 min
From the text: A crucial factor to consider is the stability of the compound in biological matrices. Both whole blood and plasma may contain enzymes able to metabolise the substance, and the metabolism rate can be relatively high. This can result in a rapid decrease in the substance concentration and an incorrect calibration curve. Additionally, if blood samples from experimental animals are dried as spots, metabolism during drying may lead to incorrect analyte concentrations. Considering these factors, we investigated the stability of the agent PA-96 in whole mouse blood.
(§4) To study the influence of the enzymes on the PA-96 stability in whole blood, mice blood spikes containing PA-96 in the concentration of 50 ng/mL were prepared. Aliquots of the spike were precipitated according to the protocol described above. Sampling was carried out at the following timepoints: 5, 10, 20, 30, 40, 50, 120, 180, and 240 min. The long-term stability of the samples was studied by the comparison of freshly prepared samples and samples prepared and kept in different conditions for 7 days. The storage conditions were the following: room temperature (+23 °C), household fridge (+4 °C), and Kelvinator (−70 °C). The acceptance criterion was a CV ≤ 15% for every day and any storing condition.

[7] = Stability of PA-96 in prepared samples under different storage conditions; format: physicochemical; conditions: within 7 days; +23 °C, +4 °C, −70 °C
Description: The stability of PA-96 in the prepared samples was investigated at different storage conditions, as mentioned in the experimental methods section.
as §4

[8] = tested on: cultured naïve dopamine neurons; set-up: method as in PMID 36500381; conditions: in vitro; cited from earlier work
[9] = 5 mg/kg, single p.o., mice, mean ± SEM, n = 4
[10] = 10 mg/kg, single p.o., mice, mean ± SEM, n = 4
[11] = single p.o., 5 mg/kg, mice, mean ± SEM, n = 4
[12] = single p.o., 10 mg/kg, mice, mean ± SEM, n = 4
[13] = both sexes, CD-1, mouse, whole blood, po, double p.o. 2×5 mg/kg, 1st administration, mean ± SEM, n = 6
[14] = both sexes, CD-1, mouse, whole blood, po, double p.o. 2×5 mg/kg, 2nd administration, mean ± SEM, n = 6
[15] = animal MPTP and haloperidol models of PD

SMILES: C=C(C)[C@@H]1CC=C(C)[C@@H](O)[C@@H]1O [Prottremine, (1R,2R,6S)-3-methyl-6-(prop-1-en-2-yl)cyclohex-3-ene-1,2-diol]
LD50 [1]: 4250 mg/kg
Dose showing antiparkinsonian activity [2]: 20 mg/kg

Tmax ([3]; single p.o., 5 mg/kg, mice, mean ± SEM, n = 4, read-out: Tmax (converted)): 6.3 min
Tmax ([3]; single p.o., 10 mg/kg, mice, mean ± SEM, n = 4, read-out: Tmax (converted)): 8.8 min
bioavailability ([3]; p.o. 5 mg/kg, mice): ~7%
bioavailability ([3]; p.o. 10 mg/kg, mice): ~35%
Cmax [3, 9]: ~36 ng/mL
half-life [3, 9]: 44 ± 13 min
Cmax [3, 10]: ~588 ng/mL
half-life [3, 10]: 15 min
Tmax ([3]; p.o. doses of 5 mg/kg and 10 mg/kg, mice, read-out: Time of maximum concentration after administration): 5 to 10 min
AUC(0-t) [3, 11]: 28.3 ng·h/mL
Vd/F [3, 11]: 190 L/kg
AUC(0-t) [3, 12]: 300 ng·h/mL
Vd/F [3, 12]: 13.7 L/kg
Signal (concentration) in blood samples ([3]; p.o. 1 mg/kg, n = 2, mice, LLOQ 25 ng/mL): lower than the LLOQ
Time of complete elimination at oral administration ([3]; p.o. 5 and 10 mg/kg, mice): 2.5 to 3 h
Increase in both Cmax and AUC on twofold increase in the dose ([3]; p.o. 5 vs 10 mg/kg, mice): by an order of magnitude
Time of complete elimination ([3]; preliminary study, p.o. 10 mg/kg, n = 2 mice): 2.5 h
Timepoint of maximum concentration ([3]; preliminary study, p.o. 10 mg/kg, n = 2 mice, first timepoint sampled): 30 min
t1/2 [3, 12]: 15.2 ± 1.2 min
AUC(0-t) [4, 13]: 25 ng·h/mL
Cmax [4, 13]: 60 ± 15 ng/mL
half-life [4, 13]: 21 ± 4 min
Vd/F [4, 13]: 108 ± 25 L/kg
AUC(0-t) [4, 14]: 135 ng·h/mL
Cmax [4, 14]: 58 ± 13 ng/mL
half-life [4, 14]: 19 ± 3 min
Vd/F [4, 14]: 25 ± 4 L/kg
Tmax ([4]; both sexes, CD-1, mouse, whole blood, po, double p.o. 2×5 mg/kg, interval 4 h, 1st administration, mean ± SEM, n = 6): 10 min
Accumulation after double administration (Cmax, AUC0-∞) ([4]; double p.o. 2×5 mg/kg, interval 4 h, mice): absence of its accumulation
Time to full elimination after administration ([4]; p.o. 5 mg/kg, double administration experiment, mice): 4 h
AUC(0-t) ([5]; 1 mg/kg, mean ± SEM, n = 6): 85 ng·h/mL
Cmax ([5]; 1 mg/kg, mean ± SEM, n = 6): 390 ng/mL
Tmax ([5]; 1 mg/kg, mean ± SEM, n = 6): 3.3 min
half-life ([5]; 1 mg/kg, mean ± SEM, n = 6): 37 ± 10 min
AUC(0-t) ([5]; 10 mg/kg, mean ± SEM, n = 2): 2170 ng·h/mL
Cmax ([5]; 10 mg/kg, mean ± SEM, n = 2): > 7700 ng/mL
half-life ([5]; 10 mg/kg, mean ± SEM, n = 2): 26.1 ± 2.9 min
Tmax ([5]; 10 mg/kg, n = 2): 3 min
Concentration level 1 h after administration ([5]; i.v. 1 and 10 mg/kg): several nanograms per mL
Time in which concentration decreases twofold after injection ([5]; i.v. 1 and 10 mg/kg): 10 to 15 min
Increase of AUC when the dose was increased tenfold ([5]; i.v. 1 vs 10 mg/kg): approximately 25 times
Increase of Cmax when the dose was increased tenfold ([5]; i.v. 1 vs 10 mg/kg): twentyfold
Change of PA-96 concentration in prepared samples [7]: ≤ 11%
SMILES: C=C(C)[C@@H]1CC=C(C)[C@@H](Sc2nc[nH]n2)[C@@H]1O [PA-96]
PA-96 concentration in whole mouse blood during stability investigation [6]: consistent within the accuracy of analysis error
Effect on motor deficits ([2]; MPTP and haloperidol-based mice models of Parkinson's disease): alleviated motor deficits
Density of tyrosine hydroxylase positive neurons and dopamine concentration in the midbrain ([2]; MPTP-damaged brain): increased
Antiparkinsonian activity relative to Prottremine [2, 15]: more active than Prottremine
Dose at which antiparkinsonian effect was displayed [2, 15]: 1 mg/kg
Survival of cultured naïve dopamine neurons [8]: supported the survival; also recorded: improved potency

SMILES: N[C@@H](Cc1ccc(O)c(O)c1)C(=O)O [L-DOPA, reference compound]
Dose showing antiparkinsonian activity [2]: 50 to 100 mg/kg
